Assay results as given in PMC11752117 (Journal of Traditional and Complementary Medicine, 2024).
Read-outs that look alike come from different tables or passages of the source.

Details: for concentration in plasma (molar) / concentration in plasma / concentration in lung tissue: 4 h after administration, respective extract 1000 mg/kg p.o.; for concentration in plasma / concentration in lung tissue: mean ± SD; for calculated concentration in lung tissue (molar): on the basis of lung water content approximately 80 % by weight
[1] = Day 1, infected hamsters, n = 4

| Structure (SMILES) | concentration in plasma (molar) (Day 1) | concentration in plasma [1] | concentration in lung tissue (Day 1) | calculated concentration in lung tissue (molar) (Day 1) | concentration in plasma (molar) (Day 3) | concentration in lung tissue (Day 3) | concentration in plasma (Day 3) | calculated concentration in lung tissue (molar) (Day 3) | average concentrations in lung tissue (range over sampling days, respective extract 1000 mg/kg/day p.o.) | concentration in plasma (molar) (Day 7) | concentration in lung tissue (Day 7) | concentration in plasma (Day 7) | calculated concentration in lung tissue (molar) (Day 7) |
| --- | --- | --- | --- | --- | --- | --- | --- | --- | --- | --- | --- | --- | --- |
| COc1cc(O)c(C(=O)[C@@H]2[C@H](CC=C(C)C)C(C)=CC[C@H]2c2ccccc2)c(O)c1 [Panduratin A, panduratin A] | ~4.21 µM | 1710.4 ± 284.3 ng/mL | 0.186 ± 0.015 µg/g | 0.37 µM | ~7.27 µM | 0.262 ± 0.047 µg/g | 2954.1 ± 582.1 ng/mL | 0.52 µM | 0.19 to 0.26 µg/g | – | – | – | – |
| C=C1CC[C@@H]2[C@](C)(CO)[C@H](O)CC[C@@]2(C)[C@@H]1C/C=C1/C(=O)OC[C@H]1O [Andrographolide, andrographolide] | ~5.48 µM | 1921.3 ± 508.4 ng/mL | 0.750 ± 0.206 µg/g | 1.72 µM | ~5.51 µM | 0.800 ± 0.144 µg/g | 1930.1 ± 257.7 ng/mL | 1.83 µM | – | ~8.01 µM | 0.850 ± 0.181 µg/g | 2808.1 ± 547.4 ng/mL | ~1.94 µM |
